Source: US9242951B2, “Covalent inhibition of bacterial quorum sensing” (priority 2009, dated 2016)
Read-outs that look alike come from different tables or passages of the source.

Experiments:
LasR [1] = target: T1, LasR (Pseudomonas aeruginosa, UniProt P25084); test: E. coli DH5-alpha LasR agonist/antagonist assay (PlasI-lacZ, beta-galactosidase); format: cell-based, P. aeruginosa
T1 construct: expressed in transfected cells; host or cells: E. coli DH5-alpha (pJN105L + pSC11 PlasI-lacZ)
Protocol: E. coli DH5-Alpha LasR Agonist/Antagonist Assay.
E. coli DH5-alpha harboring the LasR expression vector. pJN105L, and a plasmid-borne PlasI-lacZ fusion (pSC11) (Lee, J. H., Lequette, Y. & Greenberg, E. P. Activity of purified QscR, a Pseudomonas aeruginosa orphan quorum-sensing transcription factor. Mol Microbiol 59, 602-9 (2006)) was used to quantify quorum sensing inhibition by measuring expression levels of beta-galactosidase. Bacteria were incubated overnight in LB medium containing 100 micro-g/mL of ampicillin and 15 micro-g/mL of gentamicin. The culture was diluted at a 1:10 ratio by volume with fresh medium and further incubated until an OD600 nm of 0.3 was reached. A 96 well microtiter plate (Greiner) was prepared with the desired concentrations of inhibitors and bacteria were added to reach a final absorbance density (OD600 nm) of 0.3. Expression was induced at the edition of L-(+)-arabinose (4 mg/mL) and the plates were incubated at 37° C. for a period of 4 hours (OD600 nm of 0.45-0.5). The cultures were then assayed for beta-galactosidase activity according to the Miller assay method^46: […] were transferred to clear 96-well microtiter plates and the OD600 was recorded. […] was then added to a polypropylene-based 96-well microtiter plate containing […] of 0.1% SDS (w/v). Wells were thoroughly rinsed by pipetation, after which the chloroform was allowed to settle. […] upper layer was transferred to a fresh 96-well microtiter plate and […]-beta-D-galactopyranoside (ONPG, 4 mg/mL in phosphate buffer of pH 7) were added. The plates were incubated 35 minutes at 28° C. The reaction was terminated with the addition of […] sodium carbonate solution, and absorption at two wavelengths (550 nm, 429 nm) was recorded. Miller units were calculated using standard methods (Miller, J. H. Experiments in Molecular Genetics. 352-355 (Cold Spring Harbor Laboratories, 1972)). For antagonist experiments, a final concentration of 50 nM 3-oxo-C12-HSL was used.

[2] = tested on: LasI reporter coupled to the luxCDABE luminescence system; test: P. aeruginosa PAO-JP2 QS agonist/antagonist assay (luminescence reporter); format: cell-based; settings: for IC50: Pseudomonas aeruginosa, read-out: IC50, 3-oxo-C12-HSL antagonist activity in PAO-JP2
Protocol: P. aeruginosa PAO-JP2 QS Agonist/Antagonist Assay.
PAO-JP2, a lasI/rhlI-deleted strain harboring plasmid pKD201 containing a LasI reporter coupled to the luxCDABE luminescence system (see above), was incubated overnight in LB medium containing 300 micro-g/ml of trimethoprim. A 96-well black microtiter plate (Greiner) was prepared as described for the PA01 inhibition assay. The relative luminescence was then plotted against the added inhibitor concentration; IC50 values were calculated using Grafit 6.0 (Erithacus Software). For antagonist experiments, a final concentration of 50 nM 3-oxo-C12-HSL was used.

[3] = tested on: LasI reporter coupled to the luxCDABE luminescence system; test: P. aeruginosa wild-type strain (PA01) QS inhibition assay (luminescence reporter); format: cell-based; settings: for IC50: Pseudomonas aeruginosa, PAO1, read-out: IC50, inhibition of luminescence in wild type PAO1 reporter strain; for inhibition of lasI expression in PAO1-luxCDABE (virulence): FIG. 9
Protocol: P. aeruginosa Wild-Type Strain (PA01) QS Inhibition Assay.
The P. aeruginosa PA01 wild type strain harboring plasmid pKD201 containing a LasI reporter coupled to the luxCDABE luminescence system (Duan, K. & Surette, M. G. Environmental regulation of Pseudomonas aeruginosa PAO1 Las and Rhl quorum-sensing systems. J Bacteriol 189, 4827-36 (2007)), was incubated overnight in LB medium containing 300 micro-g/ml of trimethoprim. A 96-well black microtiter plate (Greiner) was prepared with the desired concentrations of inhibitors (up to 1 mM, above which growth inhibition was observed), and bacteria were added to reach a final absorbance density (OD600 nm) of 0.015. The plate was then incubated for a period of 12 hours at 37° C. During this time, luminescence measurements were performed at 10 minute intervals. The relative luminescence was then plotted against the added inhibitor concentration; IC50 values were calculated using Grafit 6.0 (Erithacus Software).

[4] = tested on: wild type P. aeruginosa PAO1 strain; test: Biofilm formation of wild type PAO1 in microtiter plates; format: cell-based; settings: 50 micro-M, 24 h, versus DMSO
Protocol: (§1) To assess whether the reactive probes inhibit QS-regulated activities, such as biofilm formation and pyocyanin production, the wild type P. aeruginosa PAO1 strain was incubated in the presence of itc-12 and 4-Br-PHL (both at 50 micro-M), or DMSO, as a control, in microtiter plates that allow analysis of 24 h biofilm formation and in vials allowing measurement of 36 h pyocyanin production. […] However, even a partial reduction in biofilm formation may be sufficient to render the bacteria vulnerable to host responses, as not only is total biofilm mass affected upon disruption of QS, but also is its architecture, its degree of porosity and its extent of flexibility and robustness.

[5] = tested on: wild type P. aeruginosa PAO1 strain; test: Pyocyanin production of wild type PAO1; format: cell-based; settings: 50 micro-M, 36 h, versus DMSO
Protocol: as §1

LasR-LBD = target: T2, LasR-LBD (Pseudomonas aeruginosa, UniProt P25084); test: Expression of LasR-LBD in presence of probe; covalent labeling by LC-MS and soluble protein by SDS-PAGE; format: binding, P. aeruginosa; settings: for soluble LasR-LBD obtained on expression in presence of compound: SDS-PAGE of purified protein; for covalent modification of purified LasR-LBD (LC-MS): 10-100 micro-M compound in bacterial growth culture
T2 construct: His6; made in house; host or cells: E. coli BL21 (pETM-11)
T2 sequence (P25084 1-173): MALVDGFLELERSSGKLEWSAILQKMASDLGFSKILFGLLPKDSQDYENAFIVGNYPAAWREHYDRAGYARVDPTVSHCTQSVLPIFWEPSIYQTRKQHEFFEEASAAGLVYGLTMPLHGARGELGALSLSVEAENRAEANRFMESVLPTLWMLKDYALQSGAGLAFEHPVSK
Protocol: All MS analyses were performed on a LCQ Fleet mass spectrometer (Thermo Scientific) with an ESI source. Spectra were collected in positive ion mode and analyzed by Xcalibur and Promass software (Thermo Scientific). For LC/MS analyses a Surveyor Plus HPLC System (Thermo Scientific) was used, equipped with a Luna C18, 5 μm (150×4.6 mm) column at a flow rate of 0.5 mL/min, using a mobile phase linear gradient of 0.1% aqueous formic acid (solvent A) and CH3CN containing 0.1% formic acid (solvent B).
The expression of full length LasR was previously found to yield largely insoluble protein in the presence or absence of the native ligand, 3-oxo-C12-HSL (Bottomley, M. J., Muraglia, E., Bazzo, R. & Carfi, A. Molecular insights into quorum sensing in the human pathogen Pseudomonas aeruginosa from the structure of the virulence regulator LasR bound to its autoinducer. J Biol Chem 282, 13592-600 (2007)). Therefore, expression was performed using a strain transformed with a pETM-11 vector encoding for a shortened, His6-tagged LasR construct, LasR-LBD (ligand-binding domain), spanning residues Met-1 to Lys-173. The plasmid was transferred into E. coli BL21 and cells were incubated in 1 mL rich LB medium for 1 hour. The cells were then grown on LB agar plates containing kanamycin (50 micro-g/mL). For expression, a single colony was selected and transferred into 5 mL of rich LB medium containing kanamycin and grown overnight. Proteins were expressed in the presence of either native 3-oxo-C12-HSL or different inhibitors and purified by Ni^2+ affinity chromatography as previously described (Bottomley, M. J., Muraglia, E., Bazzo, R. & Carfi, A. Molecular insights into quorum sensing in the human pathogen Pseudomonas aeruginosa from the structure of the virulence regulator LasR bound to its autoinducer. J Biol Chem 282, 13592-600 (2007), yielding ˜70 mg of purified protein per liter of LB medium using large scale expression conditions, and ˜0.5-1 mg of purified protein from 50 mL of LB medium using small scale expression conditions. The purification process was monitored by SDS-PAGE electrophoresis and the molecular mass of the purified proteins was confirmed by mass spectrometry.
1 mL of the overnight grown cell culture was used to inoculate 1 liter of rich LB medium containing kanamycin (50 micro-g/mL) and 10-100 micro-M of 3-oxo-C12-HSL or inhibitors 7a-c and 11a-g. Cells were grown to an optical density (OD600 nm) of 0.4, after which expression was induced at 21° C. by addition of 0.2 mM isopropyl 1-thio-beta-D-galactopyranoside (IPTG) and an additional amount of ligand/inhibitor was added to the media. After reaching an OD600 nm of 1.4 (approx. 6-8 hours), cells were centrifuged at 6000 rpm, washed and resuspended in lysis buffer containing 5 mM imidazole, 300 mM NaCl, 50 mM Tris-HCl, pH 8. Cells were ultrasonicated for 2 minutes at 70% amplitude for two cycles. The lysate was centrifuged at 12,000 rpm for 30 minutes, and the supernatants were purified by Ni^2+ affinity chromatography.
Small scale expression was performed in 50 mL volume following the previous procedure. Cells were harvested by chemical lysis, adding 1 mL of lysis buffer (5 mM imidazole, 300 mM NaCl, 0.2% (v/v) Triton X-100, 0.75 μg/mL DNase-I, 0.05 mM MgCl2, 0.01 mM CaCl2, 50 mM Tris-HCl, pH 8, and 0.01% (v/v) protein inhibitor cocktail), and incubated for 60 minutes at 37° C. Cell debris was removed by centrifugation at 4,000 rpm for 15 minutes. […]

LasR [6] = target: T1, LasR; settings: read-out: IC50 reported by Geske et al.; E. coli-based LasR antagonist assay, literature value; cited from earlier work
[7] = target: T3, LasR-LBD Cys79Ser mutation (Pseudomonas aeruginosa, UniProt P25084, C79S); test: Expression of LasR-LBD Cys79Ser mutant in presence of probe, covalent labeling; format: binding, P. aeruginosa
T3 construct: His6; made in house; host or cells: bacteria (E. coli BL21 as for wild-type LasR-LBD, inferred)
T3 sequence (P25084 1-173 C79S): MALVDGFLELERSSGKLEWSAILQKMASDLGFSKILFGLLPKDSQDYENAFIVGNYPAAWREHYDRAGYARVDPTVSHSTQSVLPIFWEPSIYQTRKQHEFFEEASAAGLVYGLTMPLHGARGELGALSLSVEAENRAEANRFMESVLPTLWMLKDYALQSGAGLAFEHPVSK

LasR-LBD Cys79Ala mutant = target: T4, LasR-LBD Cys79Ala mutant (Pseudomonas aeruginosa, UniProt P25084, C79A); test: Expression of LasR-LBD Cys79Ala mutant in presence of probe, covalent labeling; format: binding, P. aeruginosa
T4 construct: His6; made in house; host or cells: bacteria (E. coli BL21 as for wild-type LasR-LBD, inferred)
T4 sequence (P25084 1-173 C79A): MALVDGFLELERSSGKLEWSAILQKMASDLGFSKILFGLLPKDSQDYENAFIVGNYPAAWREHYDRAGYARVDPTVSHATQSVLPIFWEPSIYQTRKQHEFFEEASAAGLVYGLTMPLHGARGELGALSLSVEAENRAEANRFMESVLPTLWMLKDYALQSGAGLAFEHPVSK

T1 sequence (P25084 whole entry): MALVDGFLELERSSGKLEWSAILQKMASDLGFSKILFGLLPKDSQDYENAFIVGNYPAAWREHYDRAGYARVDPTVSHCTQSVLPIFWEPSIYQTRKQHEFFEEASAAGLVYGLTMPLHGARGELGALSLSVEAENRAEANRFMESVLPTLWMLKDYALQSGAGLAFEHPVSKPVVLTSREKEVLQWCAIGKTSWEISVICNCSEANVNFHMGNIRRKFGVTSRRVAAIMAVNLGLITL

SMILES	IC50 (LasR [1]) [µM]	IC50 [2] [µM]	IC50 [3] [µM]	covalent modification of purified LasR-LBD (LC-MS) (LasR-LBD)	further results
O=C(CCCCCCCCNC(=O)CBr)CC(=O)N[C@H]1CCOC1=O [hal-11-Br]	26.8 ± 1.3				
O=C(CCCCCCCCCCN=C=S)CC(=O)NC1CCOC1=O (stereo not drawn) [itc-13, 13-isothiocyanato-3-oxo-N-(2-oxotetrahydrofuran-3-yl)tridecanamide]	19.2 ± 3.9	30 ± 7	45.2 ± 0.7		
O=C(Cc1ccc(Br)cc1)NC1CCOC1=O (stereo not drawn) [4-Br-PHL, 2-(4-bromophenyl)-N-(2-oxo-tetrahydrofuran-3-yl)-acetamide, reference compound]	4.8 ± 0.5	~200	~250		inhibition of biofilm formation [4]: significantly inhibited; inhibition of pyocyanin production [5]: significantly inhibited; soluble LasR-LBD obtained on expression in presence of compound (LasR-LBD): no soluble LasR was observed; IC50 (LasR [6]): 3.9 µM
O=C(CCCCCCCCCNC(=O)CCl)CC(=O)N[C@H]1CCOC1=O [hal-12-Cl]		70 ± 27			IC50 (LasR [1]; antagonism of LasR activation by 50 nM 3-oxo-C12-HSL, E. coli reporter, read-out: IC50, E. coli-based LasR antagonist studies): 1.1 ± 0.1 µM
O=C(CCCCCCCCCN=C=S)CC(=O)NC1CCOC1=O (stereo not drawn) [itc-12, 12-isothiocyanato-3-oxo-N-(2-oxotetrahydrofuran-3-yl)dodecanamide]	29.8 ± 0.5	134 ± 6	113 ± 19	covalently modified	agonism in PAO-JP2-based reporter ([2]; markedly reduced levels compared to natural autoinducer): partial agonism patterns; inhibition of biofilm formation [4]: significantly inhibited; inhibition of lasI expression in PAO1-luxCDABE (virulence) [3]: dose-dependent manner; inhibition of pyocyanin production [5]: significantly inhibited; soluble LasR-LBD obtained on expression in presence of compound (LasR-LBD): larger amounts of soluble LasR-LBD; covalent modification of LasR-LBD Cys79Ser [7]: no covalent modification being observed; soluble protein, LasR-LBD Cys79Ser [7]: yielded expression of soluble protein; soluble protein, LasR-LBD Cys79Ala mutant (LasR-LBD Cys79Ala mutant): Soluble protein was, however, obtained; covalent modification of LasR-LBD Cys79Ala mutant (LasR-LBD Cys79Ala mutant; data not shown): no covalent modification was detected
O=C(CCCCCCCCNC(=O)CCl)CC(=O)N[C@H]1CCOC1=O [hal-11-Cl]	3.1 ± 0.1				
[N-]=[N+]=NCCCCCCCCCC(=O)CC(=O)NC1CCOC1=O (stereo not drawn) [azido-C12, 12-azido-3-oxo-N-(2-oxotetrahydrofuran-3-yl)dodecanamide]				no covalently labeled product	inhibitory activity compared with itc-12 ([2]; data not shown): significantly lower than that of itc-12
O=C(CCCCCCCCCS)CC(=O)NC1CCOC1=O (stereo not drawn) [thiol-11, 12-Mercapto-3-Oxo-N-(2-Oxotetrahydrofuran-3-yl)Dodecanamide]					inhibition of lasI expression in PAO1-luxCDABE (virulence) [3]: dose-dependent manner
O=C(CCCCCCCCN=C=S)CC(=O)NC1CCOC1=O (stereo not drawn) [itc-11, 11-isothiocyanato-3-oxo-N-(2-oxotetrahydrofuran-3-yl)undecanamide]	39.1 ± 9.4		~300	covalently modified	
